Experimental data taken from patent publication US20230085307A1, “PYRIDAZINONE COMPOUND AND HERBICIDE” (NISSAN CHEMICAL CORPORATION, priority 2019, published 2023).

Tests used:
rice flat sedge = experiment: Test Example 3: herbicidal effect by foliage application, Wagner pot (Table 18, symbol E); format: in vivo, rice flat sedge (Cyperus iria); settings: 320 g/ha
In short: (§1)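 Plants were sown in alluvial soil held under 0.1–0.5 cm standing water and grown 14 days in a greenhouse at 25–30 °C. An emulsifiable formulation, water-diluted to the set dose, was then sprayed onto the foliage, and effects were scored three weeks later using previously defined criteria.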

barnyard grass [1] = experiment: Test Example 5: herbicidal effect by foliage application, plastic box (Table 20, symbol H); format: in vivo, barnyard grass (Echinochloa crus-galli); settings: foliage application, 320 g/ha, 3 weeks after application
In short: (§2)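 Foliar spray test: emulsion formulation diluted in water to a set application rate, sprayed onto 14-day-old plants raised in diluvial soil at 25° C to 30° C under glass. Both herbicidal effect and crop effect rated visually three weeks later.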

wild oat [2] = experiment: Test Example 4: herbicidal effect by soil treatment (Table 19, symbol I); format: in vivo, wild oat (Avena fatua); settings: 320 g/ha
In short: (§3)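 Step 1: sow seeds in sterilized diluvial soil, cover ~1.5 cm. Step 2: spray diluted emulsion onto soil surface at predetermined rate. Step 3: greenhouse, 25–30° C, three weeks. Step 4: grade effect on each plant by earlier criteria.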

green foxtail [3] = experiment: Test Example 5: herbicidal effect by foliage application, plastic box (Table 20, symbol G); format: in vivo, green foxtail (Setaria viridis); settings: foliage application, 320 g/ha, 3 weeks after application
In short: as §2

lambsquarters [4] = experiment: Test Example 4: herbicidal effect by soil treatment (Table 19, symbol O); format: in vivo, lambsquarters (Chenopodium album); settings: 320 g/ha
In short: as §3

lambsquarters [5] = experiment: Test Example 5: herbicidal effect by foliage application, plastic box (Table 20, symbol O); format: in vivo, lambsquarters (Chenopodium album); settings: foliage application, 320 g/ha, 3 weeks after application
In short: as §2

blackgrass [6] = experiment: Test Example 5: herbicidal effect by foliage application, plastic box (Table 20, symbol J); format: in vivo, blackgrass (Alopecurus myosuroides); settings: foliage application, 320 g/ha, 3 weeks after application
In short: as §2

velvetleaf [7] = experiment: Test Example 5: herbicidal effect by foliage application, plastic box (Table 20, symbol M); format: in vivo, velvetleaf (Abutilon theophrasti); settings: foliage application, 320 g/ha, 3 weeks after application
In short: as §2

redroot pigweed = experiment: Test Example 4: herbicidal effect by soil treatment (Table 19, symbol N); format: in vivo, redroot pigweed (Amaranthus retroflexus); settings: 320 g/ha
In short: as §3

southern crabgrass [8] = experiment: Test Example 4: herbicidal effect by soil treatment (Table 19, symbol F); format: in vivo, southern crabgrass (Digitaria ciliaris); settings: 320 g/ha
In short: as §3

southern crabgrass [9] = experiment: Test Example 5: herbicidal effect by foliage application, plastic box (Table 20, symbol F); format: in vivo, southern crabgrass (Digitaria ciliaris); settings: foliage application, 320 g/ha, 3 weeks after application
In short: as §2

blackgrass [10] = experiment: Test Example 4: herbicidal effect by soil treatment (Table 19, symbol J); format: in vivo, blackgrass (Alopecurus myosuroides); settings: 320 g/ha
In short: as §3

chickweed = experiment: Test Example 4: herbicidal effect by soil treatment (Table 19, symbol P); format: in vivo, common chickweed (Stellaria media); settings: 320 g/ha
In short: as §3

barnyard grass [11] = experiment: Test Example 4: herbicidal effect by soil treatment (Table 19, symbol H); format: in vivo, barnyard grass (Echinochloa crus-galli); settings: 320 g/ha
In short: as §3

persian speedwell [12] = experiment: Test Example 4: herbicidal effect by soil treatment (Table 19, symbol R); format: in vivo, Persian speedwell (Veronica persica); settings: 320 g/ha
Excerpt: [Test Example 4] Herbicidal Effect Test by Soil Treatment
Sterilized diluvial soil was placed in a plastic box having a length of 21 cm, a width of 13 cm, and a depth of 7 cm. The seeds of each of southern crabgrass, green foxtail, barnyard grass, wild oat, blackgrass, Italian ryegrass, windgrass, velvetleaf, redroot pigweed, lambsquarters, chickweed, false cleavers, persian speedwell, corn, soybean, rice, wheat, beet, and rapeseed were sowed in a spot-like manner and covered with the soil having a thickness of about 1.5 cm. Subsequently, the emulsion agent of the compound of the present invention prepared according to Formulation Example 2 was diluted with water so as to achieve a predetermined herbicide amount, and the diluted emulsion agent was uniformly applied to the surface of the soil with a small-sized spray. The plastic box was placed in a greenhouse at 25° C. to 30° C. for growth of the plants. Three weeks after the herbicide application, the effect of the herbicide on each plant was evaluated according to the criteria of Test Example 1.

green foxtail [13] = experiment: Test Example 4: herbicidal effect by soil treatment (Table 19, symbol G); format: in vivo, green foxtail (Setaria viridis); settings: 320 g/ha
In short: as §3

barnyard grass [14] = experiment: Test Example 3: herbicidal effect by foliage application, Wagner pot (Table 18, symbol H); format: in vivo, barnyard grass (Echinochloa crus-galli); settings: 320 g/ha
In short: as §1

Italian ryegrass [15] = experiment: Test Example 5: herbicidal effect by foliage application, plastic box (Table 20, symbol K); format: in vivo, Italian ryegrass (Lolium multiflorum); settings: foliage application, 320 g/ha, 3 weeks after application
In short: as §2

wild oat [16] = experiment: Test Example 5: herbicidal effect by foliage application, plastic box (Table 20, symbol I); format: in vivo, wild oat (Avena fatua); settings: foliage application, 320 g/ha, 3 weeks after application
In short: as §2

velvetleaf [17] = experiment: Test Example 4: herbicidal effect by soil treatment (Table 19, symbol M); format: in vivo, velvetleaf (Abutilon theophrasti); settings: 320 g/ha
In short: as §3

Italian ryegrass [18] = experiment: Test Example 4: herbicidal effect by soil treatment (Table 19, symbol K); format: in vivo, Italian ryegrass (Lolium multiflorum); settings: 320 g/ha
In short: as §3

Chinese sprangletop = experiment: Test Example 3: herbicidal effect by foliage application, Wagner pot (Table 18, symbol D); format: in vivo, chinese sprangletop (Leptochloa chinensis); settings: 320 g/ha
In short: as §1

windgrass = experiment: Test Example 5: herbicidal effect by foliage application, plastic box (Table 20, symbol L); format: in vivo, windgrass (Apera spica-venti); settings: foliage application, 320 g/ha, 3 weeks after application
In short: as §2

persian speedwell [19] = experiment: Test Example 5: herbicidal effect by foliage application, plastic box (Table 20, symbol R); format: in vivo, Persian speedwell (Veronica persica); settings: foliage application, 320 g/ha, 3 weeks after application
In short: as §2

`COCCC(=O)Oc1c(C)nn(C)c(=O)c1-c1c(-c2ccc(F)cc2)sc2ccc(F)cc12` [2-003] was tested, and the “herbicidal effect on E (rice flat sedge), rating 0-5” value (rice flat sedge) was 5 (Herbicidal rate of 90% or more (almost completely withered)), the “effect on barnyard grass (H)” value (barnyard grass [1]) was 5 (Herbicidal rate of 90% or more (almost completely withered)) and the “herbicidal effect rating, I: wild oat” value (wild oat [2]) was 0 (Herbicidal rate of 5% or less (almost no effect)). The “effect on green foxtail (G)” value (green foxtail [3]) was 5 (Herbicidal rate of 90% or more (almost completely withered)), the “herbicidal effect rating, O: lambsquarters” value (lambsquarters [4]) was 5 (Herbicidal rate of 90% or more (almost completely withered)) and the “effect on lambsquarters (O)” value (lambsquarters [5]) was 5 (Herbicidal rate of 90% or more (almost completely withered)). The “effect on blackgrass (J)” value (blackgrass [6]) was 4 (Herbicidal rate of 70% or more and less than 90%), the “effect on velvetleaf (M)” value (velvetleaf [7]) was 5 (Herbicidal rate of 90% or more (almost completely withered)) and the “herbicidal effect rating, N: redroot pigweed” value (redroot pigweed) was 5 (Herbicidal rate of 90% or more (almost completely withered)). For the same compound, the “herbicidal effect rating, F: southern crabgrass” value (southern crabgrass [8]) was 5 (Herbicidal rate of 90% or more (almost completely withered)), the “effect on southern crabgrass (F)” value (southern crabgrass [9]) was 5 (Herbicidal rate of 90% or more (almost completely withered)) and the “herbicidal effect rating, J: blackgrass” value (blackgrass [10]) was 3 (Herbicidal rate of 40% or more and less than 70%). For the same compound, the “herbicidal effect rating, P: chickweed” value (chickweed) was 3 (Herbicidal rate of 40% or more and less than 70%), the “herbicidal effect rating, H: barnyard grass” value (barnyard grass [11]) was 5 (Herbicidal rate of 90% or more (almost completely withered)) and the “herbicidal effect rating, R: persian speedwell” value (persian speedwell [12]) was 4 (Herbicidal rate of 70% or more and less than 90%). The “herbicidal effect rating, G: green foxtail” value (green foxtail [13]) was 5 (Herbicidal rate of 90% or more (almost completely withered)), the “herbicidal effect on H (barnyard grass), rating 0-5” value (barnyard grass [14]) was 5 (Herbicidal rate of 90% or more (almost completely withered)) and the “effect on Italian ryegrass (K)” value (Italian ryegrass [15]) was 4 (Herbicidal rate of 70% or more and less than 90%). For the same compound, the “effect on wild oat (I)” value (wild oat [16]) was 2 (Herbicidal rate of 20% or more and less than 40%), the “herbicidal effect rating, M: velvetleaf” value (velvetleaf [17]) was 5 (Herbicidal rate of 90% or more (almost completely withered)) and the “herbicidal effect rating, K: Italian ryegrass” value (Italian ryegrass [18]) was 5 (Herbicidal rate of 90% or more (almost completely withered)). For the same compound, the “herbicidal effect on D (Chinese sprangletop), rating 0-5” value (Chinese sprangletop) was 3 (Herbicidal rate of 40% or more and less than 70%), the “effect on windgrass (L)” value (windgrass) was 4 (Herbicidal rate of 70% or more and less than 90%) and the “effect on persian speedwell (R)” value (persian speedwell [19]) was 5 (Herbicidal rate of 90% or more (almost completely withered)).
